One may read the MIC as the least concentration at which growth counts as inhibited.

For series [1], the system named is Staphylococcus aureus. Kind of series: Antimicrobial activity against Staphylococcus aureus ATCC 25923 assessed as inhibition of visible bacterial growth incubated for 18 hrs by CLSI based analysis. The class given is functional.
Series [2] deals with Staphylococcus aureus. Briefly: Antimicrobial activity against methicillin-resistant Staphylococcus aureus ATCC 43300 assessed as inhibition of visible bacterial growth incubated for 18 hrs by CLSI based analysis. Format: functional.
In series [3] the test system is Staphylococcus aureus. Kind of series: Antimicrobial activity against methicillin-resistant Staphylococcus aureus clinical isolate 2 assessed as inhibition of visible bacterial growth incubated for 18 hrs by CLSI based analysis. The class given is functional.
Series [4] concerns Staphylococcus aureus. Briefly: Antimicrobial activity against methicillin-resistant Staphylococcus aureus clinical isolate 3 assessed as inhibition of visible bacterial growth incubated for 18 hrs by CLSI based analysis. Format: functional.
The subject of series [5] is Staphylococcus aureus. Briefly: Antimicrobial activity against methicillin-resistant Staphylococcus aureus clinical isolate 4 assessed as inhibition of visible bacterial growth incubated for 18 hrs by CLSI based analysis. The class given is functional.
In another series the test system is Bacillus subtilis. Briefly: Antimicrobial activity against Bacillus subtilis ATCC 23875 assessed as inhibition of visible bacterial growth incubated for 18 hrs by CLSI based analysis. Format: functional.
The next series has as its system Enterococcus faecalis. Briefly: Antimicrobial activity against Enterococcus faecalis ATCC 19433 assessed as inhibition of visible bacterial growth incubated for 18 hrs by CLSI based analysis. The class given is functional.
A further series deals with Enterococcus faecium. Briefly: Antimicrobial activity against vancomycin-resistant Enterococcus faecium assessed as inhibition of visible bacterial growth incubated for 18 hrs by CLSI based analysis. The class given is functional.
A further series concerns Enterococcus gallinarum. Kind of series: Antimicrobial activity against Enterococcus gallinarum ATCC 49573 assessed as inhibition of visible bacterial growth incubated for 18 hrs by CLSI based analysis. The class given is functional.
In series [6] the test system is Staphylococcus epidermidis. Kind of series: Antimicrobial activity against Staphylococcus epidermidis ATCC 12228 assessed as inhibition of visible bacterial growth incubated for 18 hrs by CLSI based analysis. Format: functional.
The test system of series [7] is Staphylococcus aureus. Briefly: Antimicrobial activity against Staphylococcus aureus assessed as reduction in bacterial growth at 2 times MIC incubated for 24 hrs by time-killing assay. Format: functional, organism-based.
The subject of series [8] is Staphylococcus aureus. Kind of series: Antibacterial activity against methicillin-resistant Staphylococcus aureus infected in kunming mouse pneumonia model assessed as decrease in IL-6 expression in lung at 5 mg/kg, ip measured upto 8 days. The class given is functional, organism-based. The following applies: time <= 8.0 day.
Series [9] concerns Staphylococcus aureus. Briefly: Antibacterial activity against methicillin-resistant Staphylococcus aureus infected in kunming mouse pneumonia model assessed as decrease in IL-10 expression in lung at 5 mg/kg, ip measured upto 8 days. Format: functional, organism-based. The following applies: time <= 8.0 day.
Series [10] deals with Staphylococcus aureus. Kind of series: Antibacterial activity against methicillin-resistant Staphylococcus aureus infected in kunming mouse pneumonia model assessed as decrease in TNF-alpha expression in lung at 5 mg/kg, ip measured upto 8 days. The class given is functional, organism-based. The following applies: time <= 8.0 day.
Series [11] concerns Cell membrane. Kind of series: Disruption of cell membrane integrity in Staphylococcus aureus at 4 times of MIC incubated for 1 mins by Propidium iodide staining based analysis. The class given is subcellular.
The subject of series [12] is Cell membrane. Briefly: Disruption of cell membrane integrity in Staphylococcus aureus at 4 times of MIC incubated for 30 mins by Propidium iodide staining based analysis. The class given is subcellular.
Another series deals with Escherichia coli. Briefly: Antimicrobial activity against Escherichia coli assessed as inhibition of visible bacterial growth incubated for 18 hrs by CLSI based analysis. Format: functional.
A short description of series [13]: Hemolytic activity against mouse Red blood cell incubated for 1 hr. As to conditions: erythrocyte. The class given is toxicity, cell-based.
Series [14] is described as follows: Therapeutic index, ratio of HC5 for hemolytic activity in mouse Red blood cell to MIC for antimicrobial activity against Staphylococcus aureus ATCC 25923 assessed as inhibition of visible bacterial growth. The class given is toxicity, cell-based, RBC. As to conditions: red blood cells, read-out: TI.
Series [15] can be described thus: Hemolytic activity against mouse Red blood cells at 100 microg/ml incubated for 1 hr relative to control. Format: toxicity, cell-based, Erythrocyte. As to conditions: at 100 µg/mL, read-out: Activity.
Series [16] deals with Staphylococcus aureus. Briefly: Antimicrobial activity against Staphylococcus aureus assessed as inhibition of visible bacterial growth incubated for 18 hrs by CLSI based analysis. Format: functional.
A further series concerns Candida albicans. Briefly: Antifungal activity against Candida albicans assessed as reduction in fungal growth incubated for 18 hrs by CLSI based analysis. Format: functional.
The test system of series [17] is Staphylococcus aureus. Kind of series: Antibacterial activity against methicillin-resistant Staphylococcus aureus infected in kunming mouse keratitis model assessed as log reduction in colony count at 5 mg/kg, ip measured upto 8 days. Format: functional. The following applies: time <= 8 day.
The subject of series [18] is Staphylococcus aureus. Kind of series: Drug resistance, ratio of MIC for Staphylococcus aureus after 6 passages to MIC for Staphylococcus aureus during first exposure. Format: functional.
In series [19] the test system is Staphylococcus aureus. Kind of series: Drug resistance, ratio of MIC for Staphylococcus aureus after 12 passages to MIC for Staphylococcus aureus during first exposure. The class given is functional.
Series [20] deals with Staphylococcus aureus. Briefly: Drug resistance, ratio of MIC for Staphylococcus aureus after 15 passages to MIC for Staphylococcus aureus during first exposure. The class given is functional.
The test system of series [21] is Staphylococcus aureus. Kind of series: Drug resistance, ratio of MIC for Staphylococcus aureus after 21 passages to MIC for Staphylococcus aureus during first exposure. Format: functional.

≈ marks a conversion by molar mass, not a printed value. Calls of active or inactive are those of the source. The calls are words filed in the database; no cut-off is given here. Positions of bridges follow the written chain, without caps; N, C: chain ends. Non-standard residues stand in square brackets, D forms with d. Residues, ends and D or L forms follow the SMILES beside them. *: point of attachment. X1 = CC[C@H](C)CCCCC(=O)*; dDab = NCC[C@@H](N)C(=O)O; Dab = NCC[C@H](N)C(=O)O

As for `CN[C@H](CC(C)C)C(=O)N[C@H]1C(=O)N[C@@H](CC(N)=O)C(=O)N[C@H]2C(=O)N[C@H]3C(=O)N[C@H](C(=O)N[C@H](C(=O)O)c4cc(O)cc(O)c4-c4cc3ccc4O)[C@H](O)c3ccc(c(Cl)c3)Oc3cc2cc(c3O[C@@H]2O[C@H](CO)[C@@H](O)[C@H](O)[C@H]2O[C@H]2C[C@](C)(N)[C@H](O)[C@H](C)O2)Oc2ccc(cc2Cl)[C@H]1O` [VANCOMYCIN], the MIC turned out to be 0.78 µg/mL (≈ 0.538 µM) in the series on Staphylococcus aureus [1]; 0.78 µg/mL (≈ 0.538 µM) in the series on Staphylococcus aureus [2]; 3.13 µg/mL (≈ 2.16 µM) in the series with Staphylococcus aureus [3]; 0.78 µg/mL (≈ 0.538 µM) in the series on Staphylococcus aureus [4]; 1.56 µg/mL (≈ 1.08 µM) with Staphylococcus aureus [5]; 0.39 µg/mL (≈ 0.269 µM) in the series with Bacillus subtilis. Moreover, the MIC in the series on Enterococcus faecalis was found to be 0.39 µg/mL (≈ 0.269 µM); in the series on Enterococcus faecium it was 25 µg/mL (≈ 17.3 µM); with Enterococcus gallinarum, 3.13 µg/mL (≈ 2.16 µM); in series [6], 0.39 µg/mL (≈ 0.269 µM). The outcome in the series on Staphylococcus aureus [7] was inactive. The result in the series on Staphylococcus aureus [8], with Staphylococcus aureus [9] and with Staphylococcus aureus [10] was Active.

Consider `CC(C)CCCCC(=O)N[C@@H](CCN)C(=O)N[C@H](C(=O)N[C@@H](CCN)C(=O)N[C@H]1CCNC(=O)[C@H]([C@@H](C)O)NC(=O)[C@H](CCN)NC(=O)[C@H](CCN)NC(=O)[C@H](CC(C)C)NC(=O)[C@@H](Cc2ccccc2)NC(=O)[C@@H](CCN)NC1=O)[C@@H](C)O.CC[C@H](C)CCCCC(=O)N[C@@H](CCN)C(=O)N[C@H](C(=O)N[C@@H](CCN)C(=O)N[C@H]1CCNC(=O)[C@H]([C@@H](C)O)NC(=O)[C@H](CCN)NC(=O)[C@H](CCN)NC(=O)[C@H](CC(C)C)NC(=O)[C@@H](Cc2ccccc2)NC(=O)[C@@H](CCN)NC1=O)[C@@H](C)O` (X1-[Dab]T[Dab][Dab][dDab][dF]L[Dab][Dab]T; lactam 4-C), for which the Activity with Cell membrane [11] was found to be 5.54%; in the series with Cell membrane [12] it was 38%.

For the molecule `CC(C)C[C@H]1NC(=O)[C@H](Cc2c(C(c3ccccc3)(c3ccccc3)c3ccccc3)[nH]c3ccccc23)NC(=O)[C@@H](C(C)C)NC(=O)[C@@H]2CSC(N2)[C@H](C(C)C)NC(=O)[C@@H](CCCCN)NC(=O)[C@H](C(C)C)NC1=O`, the MIC in the series with Staphylococcus aureus [1] came to 3.13 µg/mL (≈ 2.97 µM); in the series with Staphylococcus aureus [2] it was 3.13 µg/mL (≈ 2.97 µM); with Staphylococcus aureus [3], 3.13 µg/mL (≈ 2.97 µM); in the series on Staphylococcus aureus [4], 6.25 µg/mL (≈ 5.93 µM); with Staphylococcus aureus [5], 6.25 µg/mL (≈ 5.93 µM); in the series on Bacillus subtilis it was 6.25 µg/mL (≈ 5.93 µM). For the same molecule, the MIC in the series with Enterococcus faecalis stood at 12.5 µg/mL (≈ 11.9 µM); in the series with Enterococcus faecium it was 12.5 µg/mL (≈ 11.9 µM); with Enterococcus gallinarum it was 6.25 µg/mL (≈ 5.93 µM); in [6], 6.25 µg/mL (≈ 5.93 µM); in the series on Escherichia coli it was 3.13 µg/mL (≈ 2.97 µM); with Staphylococcus aureus [16], 3.13 µg/mL (≈ 2.97 µM). Also, in the series on Candida albicans, the minimal inhibitory concentration (MIC) worked out at 3.13 µg/mL (≈ 2.97 µM). The molecule further displayed an HC5 in series [13] of 44.04 µg/mL. Besides, in [14], the selectivity ratio was 14.1. For the same molecule, the hemolysis at 1 h, 100 microg/ml in [15] was found to be 23%.

Consider `CC(=O)NC[C@H]1CN(c2ccc(N3CCOCC3)c(F)c2)C(=O)O1` [LINEZOLID], for which the MIC in the series on Staphylococcus aureus [1] came out at 1.56 µg/mL (≈ 4.62 µM); in the series on Staphylococcus aureus [2] it was 1.56 µg/mL (≈ 4.62 µM); in the series on Staphylococcus aureus [3] it was 3.13 µg/mL (≈ 9.28 µM); with Staphylococcus aureus [4], 1.56 µg/mL (≈ 4.62 µM); in the series on Staphylococcus aureus [5], 1.56 µg/mL (≈ 4.62 µM); with Bacillus subtilis, 1.56 µg/mL (≈ 4.62 µM). Further, the MIC turned out to be 1.56 µg/mL (≈ 4.62 µM) in the series on Enterococcus faecalis, 1.56 µg/mL (≈ 4.62 µM) with Enterococcus faecium, 1.56 µg/mL (≈ 4.62 µM) in the series with Enterococcus gallinarum and 0.39 µg/mL (≈ 1.16 µM) in [6]. In the series on Staphylococcus aureus [17], the FC stood at 0.864.

With `CC(C)C[C@H]1NC(=O)[C@H](Cc2c(C(c3ccccc3)(c3ccccc3)c3ccccc3)[nH]c3ccccc23)NC(=O)[C@@H](C(C)C)NC(=O)[C@@H]2CSC(N2)[C@H](C(C)C)NC(=O)[C@@H](C(C)C)NC(=O)[C@H](CCCCN)NC1=O`, the MIC in the series on Staphylococcus aureus [1], with Staphylococcus aureus [2], in the series on Staphylococcus aureus [3], with Staphylococcus aureus [4], in the series on Staphylococcus aureus [5] and with Bacillus subtilis was 6.25 µg/mL (≈ 5.93 µM) throughout. Also, the MIC in the series with Enterococcus faecalis was found to be 12.5 µg/mL (≈ 11.9 µM); in the series on Enterococcus faecium, 12.5 µg/mL (≈ 11.9 µM); in the series on Enterococcus gallinarum, 12.5 µg/mL (≈ 11.9 µM); in series [6] it was 6.25 µg/mL (≈ 5.93 µM); in the series with Escherichia coli, 3.13 µg/mL (≈ 2.97 µM); in the series with Staphylococcus aureus [16] it was 3.13 µg/mL (≈ 2.97 µM). For the same molecule, the MIC in the series on Candida albicans was 3.13 µg/mL (≈ 2.97 µM). The molecule further had an HC5 in series [13] of 68.73 µg/mL. For the same molecule, the selectivity ratio in [14] came to 11.

As to `CC1(C)S[C@@H]2[C@H](NC(=O)[C@H](N)c3ccc(O)cc3)C(=O)N2[C@H]1C(=O)O` [AMOXICILLIN], the Ratio in the series with Staphylococcus aureus [18] turned out to be 10; in the series with Staphylococcus aureus [19], 30; in the series on Staphylococcus aureus [20], 250; in the series with Staphylococcus aureus [21], 250.

The record behind these values is ChEMBL document CHEMBL6103613 (J Med Chem, 2025).
